These results are taken from US20110176998A1, “IMAGING AND THERAPY OF VIRUS-ASSOCIATED TUMORS” (THE JOHNS HOPKINS UNIVERSITY, priority 2007, published 2011).

The subject of experiment [1] is EBV viral DNA copy number. Nature of the experiment: real-time PCR for EBV viral DNA copy number (viral replication). The experiment is classed as cell-based, Epstein-Barr virus. The procedure:
Genomic DNA from treated cells were extracted with the QIAamp DNA mini kit (Qiagen, CA) according to the manufacturer's instructions. PCRs were set up in a volume of 50 μL with a TaqMan PCR core reagent kit (Perkin-Elmer Corp., Branchburg, N.J.). Fluorescent probes were custom synthesized by Perkin-Elmer Applied Biosystems. PCR primers were synthesized by Gibco BRL (Frederick, Md.). Each reaction contained 5 μL of 10× buffer A (4 mM MgCl2), amplification primers (300 nM), fluorescent probe (25 nM), dATP, dCTP, and dGTP (200 μM each), dUTP (400 uM), 1.25 U of AmpliTaq Gold, and 0.5 U of AmpErase uracil N-glycosylase. Extracted genomic DNA was used for amplification. DNA amplification was carried out in a 96-well reaction plate in a Perkin-Elmer Applied Biosystems 7700 sequence detector. Each sample was analyzed in duplicate, and multiple negative water blanks were included in each analysis. A calibration curve was run in parallel and in duplicate with each analysis, with DNA extracted from the EBV-positive cell line Namalwa as a standard.
The EBV genome was quantified by real-time PCR with the ICycler system (Biorad, Hercules, Calif.). Template DNA was extracted with a mini blood DNA Kit (Qiagen, Valencia, Calif.). […]. A calibration curve was run in parallel and in duplicate with each analysis, using DNA extracted from the diploid EBV-positive cell line Namalwa containing two integrated viral genomes per cell as a standard. Amplification data were collected with an MyiQ single color real-time PCR Detector (Biorad) and analyzed with the MyiQ software developed by Biorad.
For orientation: Quantitative PCR measures a nucleic acid by following its amplification.

The test system of experiment [2] is BZLF1 protein (ZTA). Briefly: Western blot / immunoblot for ZTA (BZLF1 protein) in EBV positive cell lines. It is filed as cell-based, Epstein-Barr virus. The settings on record: Rael cells. How it is done: To detect expression of the EBV-TK or EBV-ZTA, total cell protein was first extracted by treating cells with lysis buffer (0.05 M Tris, pH 7.6, 0.15 M NaCl, 1% triton-X 100, 2 mM EDTA) containing protease inhibitors for 10 minutes at 4° C. The following reagents were added to 1 mL of lysis buffer: 2 μL leupeptin (5 mg/mL), 1 μL 0.2 M Na3VO4, 1 μL NaF, 1 μL aprotinin (10 mg/ml), 1 μL, pepstatin (2 mM), and 10 μL PMSF (100 mM) for 10 minutes at 4° C. Following centrifugation, the supernatant was collected and stored at −80° C. Protein concentration was determined with the BCA Protein Assay Kit (Pierce, Rockford, Ill.) according to the manufacturer's instructions. A 10 μg aliquot of total cellular protein was fractionated on a 7.5% SDS-polyacrylamide gel. Proteins were transferred to PROTRAN nitrocellulose membrane (Schleicher & Schuell, Keene, N.H.). The membranes were blocked with 5% blotting grade non-fat dry milk (Bio-rad, Hercules, Calif.) in PBS with 0.1% TWEEN-20 (PBS-T) at 4° C. overnight. The membranes were then washed with PBS-T twice followed by incubation with 1/1,000-diluted rabbit anti-TK sera from a rabbit immunized with a synthetic EBV-TK peptide ([…]) or anti-ZTA monoclonal antibody (Argene, North Massapequa, N.Y.) at room temperature for 1 hour. After washing, the membranes were incubated with HRP-conjugated goat anti-rabbit IgG antibodies or HRP-conjugated goat anti-mouse IgG antibodies (Amersham Pharmacia Biotech, Piscataway, N.J.) at a 1/5,000 dilution in PBS-T at room temperature for 1 hour. The membranes were washed twice and proteins were detected with ECL Western Blotting Detection reagents (Amersham Pharmacia Biotech). The membranes were exposed to X-OMAT film (Kodak, Rochester, N.Y.) at room temperature.
For lytic induction studies, cells were seeded at 10^6/ml, and treated with test compounds for 48 hours. Control untreated cells were incubated in parallel.
Cells were washed with PBS twice. Total cellular protein was extracted with lysis buffer. Proteins were electrophoresed in polyacrylamide and then transferred onto a PROTRAN nitrocellulose membrane (Schleicher&Schuell, Keene, N.H.). Blots were probed with primary antibody (Ab) overnight at 4° C. HRP-conjugated secondary Ab was added after washing and detected by an enhanced chemiluminescence system (ECL) (Amersham). The following antibodies were used: anti-ZTA (Argene), anti-f3-actin (Sigma), anti-mouse (Sigma).
Background: Immunoblotting shows a protein as a band on a membrane.

Experiment [3] concerns EBV(+) Akata cells. Briefly: entry of EBV(+) Akata cells into the lytic cycle. The settings on record: 20 nM, 48 hours.
The test system of experiment [4] is EBV-TK. Briefly: immunoblot for EBV-TK expression. The experiment is classed as cell-based, Epstein-Barr virus. To be noted: Rael cells; immunoblot. How it is done: To detect expression of the EBV-TK or EBV-ZTA, total cell protein was first extracted by treating cells with lysis buffer (0.05 M Tris, pH 7.6, 0.15 M NaCl, 1% triton-X 100, 2 mM EDTA) containing protease inhibitors for 10 minutes at 4° C. The following reagents were added to 1 mL of lysis buffer: 2 μL leupeptin (5 mg/mL), 1 μL 0.2 M Na3VO4, 1 μL NaF, 1 μL aprotinin (10 mg/ml), 1 μL, pepstatin (2 mM), and 10 μL PMSF (100 mM) for 10 minutes at 4° C. Following centrifugation, the supernatant was collected and stored at −80° C. Protein concentration was determined with the BCA Protein Assay Kit (Pierce, Rockford, Ill.) according to the manufacturer's instructions. A 10 μg aliquot of total cellular protein was fractionated on a 7.5% SDS-polyacrylamide gel. Proteins were transferred to PROTRAN nitrocellulose membrane (Schleicher & Schuell, Keene, N.H.). The membranes were blocked with 5% blotting grade non-fat dry milk (Bio-rad, Hercules, Calif.) in PBS with 0.1% TWEEN-20 (PBS-T) at 4° C. overnight. […] The membranes were washed twice and proteins were detected with ECL Western Blotting Detection reagents (Amersham Pharmacia Biotech). […]

Experiment [5] relates to EBV(+) Burkitt's lymphoma (Rael). Nature of the experiment: tumor growth, EBV(+) Burkitt's lymphoma (Rael) xenografts. It is filed as in vivo, SCID mice. The settings on record: bortezomib without [131I]FIAU. How it is done: Therefore, an evaluation of a therapeutic isotope was carried out. As described above, SCID mice engrafted with EBV Burkitt's lymphoma xenografts received either buffer or bortezomib followed the next day by treatment with [^131I]FIAU or no treatment. […] Thus, bortezomib allowed targeting of [^131I]FIAU with therapeutic effect. Other proteasome inhibitors are also likely to be active. Several are in clinical trial.
Biostatistics. Linear regression and curve fitting were undertaken carried using GraphPad Prism software version 5.00 for Windows, GraphPad Software, San Diego Calif. USA, www.graphpad.com.

Experiment [6] deals with recombinant EBV encoding GFP (BX-1) in AKATA-BX1 cells. Nature of the experiment: GFP whole virus assay in AKATA-BX1 cells. The settings on record: for GFP signal: AKATA-BX1 cells.
For experiment [7], the system named is Zta promoter. The experiment is classed as cell-based, Epstein-Barr virus.

With `CC(C)C[C@H](NC(=O)[C@H](Cc1ccccc1)NC(=O)c1cnccn1)B(O)O` [Bortezomib], the “increase of EBV viral DNA copy number” value in experiment [1] (Rael cells, 20 nM for 8 hours, DNA collected after 48 hours) is recorded as 20 fold. Besides, the viral copy number result in experiment [1] (real time DNA PCR, Rael) is recorded as “increased”. In addition, in experiment [2], the ZTA expression entry is listed as “induced”. Also, the “cells entered the lytic cycle” value in experiment [3] was 67%. Also, in experiment [4], the EBV-TK expression entry was “induced”. The tumor growth result in experiment [5] is given as “slowed tumor growth”. The GFP signal entry in experiment [6] is “dose dependent”; in experiment [6] (10 nM), “induced GFP signal”. Also, the “EC50 for inducing lytic infection” value in experiment [6] (GFP assay) and in experiment [7] (luciferase assay) was “nanomolar scale” each time. For the same molecule, in experiment [6] (library screen at 10 uM), the “known lytic inducer re-identified / hit in lymphoma cell line/whole virus assay” value is on record as “most prominent hit”. The “Zta promoter luciferase activity” value in experiment [7] (AGS cells) is given as “increases in a bortezomib dose-dependent manner”. The “induction of BZLF1 promoter” value in experiment [7] (AGS cells, 10 nM) is on record as “induced”. Also, the “known lytic inducer re-identified / hit in epithelial promoter reporter assay” value in experiment [7] (library screen at 10 uM) is reported as “most prominent hit”.
